Columns and labels:
[1] = tested on: bamyardgrass; assay: Test B flood test barnyardgrass; format: in vivo, Echinochloa crus-galli
Outline: (§1)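 Plants were grown to the 2-leaf stage before treatment with test chemical, then held in a greenhouse for twelve to sixteen days. Injury was visually rated against untreated controls on a 0–10 scale, where 0 is no effect and 10 is complete control.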

[2] = tested on: surinam grass; assay: Test B pre/postemergence surinam grass; format: in vivo, Brachiaria decumbens
Outline: (§2)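 Herbicidal effect was estimated by eye on a ten-point control scale after plants spent twelve to sixteen days in a greenhouse following soil or foliar treatment. Foliar sprays targeted plants at one to four leaves; all doses were formulated in a non-phytotoxic solvent with surfactant.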

[3] = tested on: rice; assay: Test B flood test rice; format: in vivo, Oryza sativa
Outline: as §1

[4] = tested on: pigweed; assay: Test B pre/postemergence pigweed; format: in vivo, Amaranthus retroflexus
Outline: as §2

[5] = tested on: morningglory; assay: Test B pre/postemergence morningglory; format: in vivo, Ipomoea hederacea
Outline: as §2

[6] = tested on: velvetleaf; assay: Test B pre/postemergence velvetleaf; format: in vivo, Abutilon theophrasti
Outline: as §2

[7] = tested on: wild oat; assay: Test B pre/postemergence wild oat; format: in vivo, Avena fatua
Outline: as §2

[8] = tested on: corn; assay: Test B pre/postemergence corn; format: in vivo, Zea mays
Outline: as §2

[9] = tested on: soybean; assay: Test B pre/postemergence soybean; format: in vivo, Glycine max
Outline: as §2

[10] = tested on: blackgrass; assay: Test B pre/postemergence blackgrass; format: in vivo, Alopecurus myosuroides
Outline: as §2

[11] = tested on: smallflower flatsedge; assay: Test B flood test smallflower flatsedge; format: in vivo, Cyperus difformis
Outline: as §1

[12] = tested on: cocklebur; assay: Test B pre/postemergence cocklebur; format: in vivo, Xanthium strumarium
Outline: as §2

[13] = tested on: purple nutsedge; assay: Test B pre/postemergence purple nutsedge; format: in vivo, Cyperus rotundus
Outline: as §2

[14] = tested on: sugar beet; assay: Test B pre/postemergence sugar beet; format: in vivo, Beta vulgaris
Outline: as §2

[15] = tested on: rape; assay: Test B pre/postemergence rape; format: in vivo, Brassica napus
Outline: as §2

[16] = tested on: bedstraw; assay: Test B pre/postemergence bedstraw; format: in vivo, Galium aparine; conditions: Rate 62 g/ha, Postemergence; scale 0 to 10, 0 no effect, 10 complete control
Outline: as §2

[17] = Rate 62 g/ha, flood test species, Pre-emergence, visual evaluation after twelve to sixteen days
[18] = Rate 125 g/ha, under heading Pre-emergence, flood test species, visual evaluation after twelve to sixteen days
[19] = Rate 250 g/ha, Pre-emergence (flood test species), scale 0 to 10, 0 is no effect, 10 is complete control
[20] = Rate 500 g/ha, Pre-emergence, flood test species, scale 0 to 10 (0 no effect, 10 complete control)
[21] = Postemergence, Rate 500 g/ha, scale of 0 to 10 where 0 is no effect and 10 is complete control
[22] = Preemergence, Rate 62 g/ha, scale of 0 to 10 where 0 is no effect and 10 is complete control
[23] = Preemergence, Rate 125 g/ha, scale of 0 to 10 where 0 is no effect and 10 is complete control
[24] = Preemergence, Rate 250 g/ha, scale 0 to 10, 0 is no effect, 10 is complete control
[25] = Preemergence, Rate 500 g/ha, scale 0 to 10, 0 is no effect, 10 is complete control
[26] = Rate 62 g/ha, Postemergence, scale 0 to 10, 0 no effect, 10 complete control
[27] = Rate 125 g/ha, Postemergence, scale 0 to 10, 0 is no effect, 10 is complete control
[28] = Postemergence, Rate 250 g/ha, scale 0 to 10

Cc1nc(C)c(C(C)n2c(=O)on(C(=O)N(c3ccc(F)cc3F)C(C)C)c2=O)s1 (stereo not shown) [Compound 443]
Plant response rating, Barnyardgrass (0 to 10 scale, 0 is no effect, 10 is complete control) [1, 17]: 0 | Barnyardgrass plant response rating (0 to 10 scale, 0 is no effect, 10 is complete control) [1, 18]: 0 | Barnyardgrass plant response rating [1, 19]: 0 | Barnyardgrass plant response rating [1, 20]: 0 | B. signalgrass plant response rating ([2]; Postemergence, Rate 250 g/ha, scale 0 to 10, 0 no effect, 10 complete control): 0 | B. signalgrass plant response rating [2, 21]: 0 | Plant response rating, B. signalgrass [2, 22]: 0 | Plant response rating, B. signalgrass [2, 23]: 0 | B. signalgrass plant response rating [2, 24]: 0 | B. signalgrass plant response rating [2, 25]: 10 | B. signalgrass plant response rating [2, 26]: 0 | B. signalgrass plant response rating [2, 27]: 0 | Plant response rating, Rice (0 to 10 scale, 0 is no effect, 10 is complete control) [3, 17]: 0 | Rice plant response rating (0 to 10 scale, 0 is no effect, 10 is complete control) [3, 18]: 0 | Rice plant response rating [3, 19]: 0 | Rice plant response rating [3, 20]: 0 | Redroot pigweed plant response rating [4, 28]: 0 | Redroot pigweed plant response rating [4, 21]: 0 | Plant response rating, Redroot pigweed [4, 22]: 0 | Plant response rating, Redroot pigweed [4, 23]: 0 | Redroot pigweed plant response rating [4, 24]: 0 | Redroot pigweed plant response rating [4, 25]: 6 | Redroot pigweed plant response rating [4, 26]: 0 | Redroot pigweed plant response rating [4, 27]: 0 | Morningglory plant response rating [5, 28]: 4 | Morningglory plant response rating [5, 21]: 4 | Plant response rating, Morningglory [5, 22]: 0 | Plant response rating, Morningglory [5, 23]: 0 | Morningglory plant response rating [5, 24]: 0 | Morningglory plant response rating [5, 25]: 0 | Morningglory plant response rating [5, 26]: 2 | Morningglory plant response rating [5, 27]: 3 | Velvetleaf plant response rating [6, 28]: 0 | Velvetleaf plant response rating [6, 21]: 0 | Plant response rating, Velvetleaf [6, 22]: 0 | Plant response rating, Velvetleaf [6, 23]: 0 | Velvetleaf plant response rating [6, 24]: 0 | Velvetleaf plant response rating [6, 25]: 0 | Velvetleaf plant response rating [6, 26]: 0 | Velvetleaf plant response rating [6, 27]: 0 | Wild oats plant response rating [7, 28]: 0 | Wild oats plant response rating [7, 21]: 0 | Plant response rating, Wild oats [7, 22]: 0 | Plant response rating, Wild oats [7, 23]: 0 | Wild oats plant response rating [7, 24]: 0 | Wild oats plant response rating [7, 25]: 0 | Wild oats plant response rating [7, 26]: 0 | Wild oats plant response rating [7, 27]: 0 | Corn plant response rating [8, 28]: 0 | Corn plant response rating [8, 21]: 0 | Plant response rating, Corn [8, 22]: 0 | Plant response rating, Corn [8, 23]: 0 | Corn plant response rating [8, 24]: 0 | Corn plant response rating [8, 25]: 0 | Corn plant response rating [8, 26]: 0 | Corn plant response rating [8, 27]: 0 | Soybean plant response rating [9, 28]: 1 | Soybean plant response rating [9, 21]: 2 | Plant response rating, Soybean [9, 22]: 0 | Plant response rating, Soybean [9, 23]: 0 | Soybean plant response rating [9, 24]: 0 | Soybean plant response rating [9, 25]: 0 | Soybean plant response rating [9, 26]: 1 | Soybean plant response rating [9, 27]: 1 | Blackgrass plant response rating [10, 28]: 0 | Blackgrass plant response rating [10, 21]: 0 | Plant response rating, Blackgrass [10, 22]: 0 | Plant response rating, Blackgrass [10, 23]: 0 | Blackgrass plant response rating [10, 24]: 0 | Blackgrass plant response rating [10, 25]: 0 | Blackgrass plant response rating [10, 26]: 0 | Blackgrass plant response rating [10, 27]: 0 | Plant response rating, S. Flatsedge (0 to 10 scale, 0 is no effect, 10 is complete control) [11, 17]: 0 | S. Flatsedge plant response rating (0 to 10 scale, 0 is no effect, 10 is complete control) [11, 18]: 0 | S. Flatsedge plant response rating [11, 19]: 0 | S. Flatsedge plant response rating [11, 20]: 0 | Cocklebur plant response rating [12, 28]: 0 | Cocklebur plant response rating [12, 21]: 0 | Plant response rating, Cocklebur [12, 22]: 0 | Plant response rating, Cocklebur [12, 23]: 0 | Cocklebur plant response rating [12, 24]: 0 | Cocklebur plant response rating [12, 25]: 0 | Cocklebur plant response rating [12, 26]: 0 | Cocklebur plant response rating [12, 27]: 0 | Nutsedge plant response rating [13, 28]: 0 | Nutsedge plant response rating [13, 21]: 0 | Plant response rating, Nutsedge [13, 22]: 0 | Plant response rating, Nutsedge [13, 23]: 0 | Nutsedge plant response rating [13, 24]: 0 | Nutsedge plant response rating [13, 25]: 0 | Nutsedge plant response rating [13, 26]: 0 | Nutsedge plant response rating [13, 27]: 0 | Sugarbeets plant response rating [14, 28]: 0 | Sugarbeets plant response rating [14, 21]: 0 | Plant response rating, Sugarbeets [14, 22]: 0 | Plant response rating, Sugarbeets [14, 23]: 0 | Sugarbeets plant response rating [14, 24]: 0 | Sugarbeets plant response rating [14, 25]: 0 | Sugarbeets plant response rating [14, 26]: 0 | Sugarbeets plant response rating [14, 27]: 0 | Rape plant response rating [15, 28]: 0 | Rape plant response rating [15, 21]: 0 | Plant response rating, Rape [15, 22]: 0 | Plant response rating, Rape [15, 23]: 0 | Rape plant response rating [15, 24]: 0 | Rape plant response rating [15, 25]: 0 | Rape plant response rating [15, 26]: 0 | Rape plant response rating [15, 27]: 0 | Bedstraw plant response rating [16]: 0
